{"source": "paper PMC4401082", "about": "(European journal of medicinal chemistry, 2014)", "key": {"[1]": {"target": "hCOX-1 (cyclooxygenase-1) (Homo sapiens, UniProt P23219)", "sequence (P23219 24-599)": "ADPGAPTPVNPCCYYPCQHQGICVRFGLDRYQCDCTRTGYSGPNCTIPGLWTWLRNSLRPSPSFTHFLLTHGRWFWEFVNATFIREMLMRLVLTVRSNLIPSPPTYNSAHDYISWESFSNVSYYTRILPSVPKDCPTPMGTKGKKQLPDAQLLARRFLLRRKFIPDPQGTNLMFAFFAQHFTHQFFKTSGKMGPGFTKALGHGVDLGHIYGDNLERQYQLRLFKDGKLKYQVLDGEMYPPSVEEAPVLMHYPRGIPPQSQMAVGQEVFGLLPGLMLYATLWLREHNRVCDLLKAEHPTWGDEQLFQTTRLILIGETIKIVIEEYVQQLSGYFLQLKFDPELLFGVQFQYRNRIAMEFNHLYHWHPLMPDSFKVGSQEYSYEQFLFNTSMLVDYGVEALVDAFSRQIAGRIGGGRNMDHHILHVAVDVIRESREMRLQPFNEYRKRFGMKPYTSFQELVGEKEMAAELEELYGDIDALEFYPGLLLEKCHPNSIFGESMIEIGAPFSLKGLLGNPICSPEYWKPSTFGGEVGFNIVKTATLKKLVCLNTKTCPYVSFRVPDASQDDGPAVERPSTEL", "assay": "[[…]-14C]-arachidonic acid metabolism in intact OVCAR-3 cells", "type": "cell-based"}, "[2]": {"target": "T1, oCOX-1 (ovine cyclooxygenase-1) (Ovis aries, UniProt P05979)", "T1 sequence (P05979 25-600)": "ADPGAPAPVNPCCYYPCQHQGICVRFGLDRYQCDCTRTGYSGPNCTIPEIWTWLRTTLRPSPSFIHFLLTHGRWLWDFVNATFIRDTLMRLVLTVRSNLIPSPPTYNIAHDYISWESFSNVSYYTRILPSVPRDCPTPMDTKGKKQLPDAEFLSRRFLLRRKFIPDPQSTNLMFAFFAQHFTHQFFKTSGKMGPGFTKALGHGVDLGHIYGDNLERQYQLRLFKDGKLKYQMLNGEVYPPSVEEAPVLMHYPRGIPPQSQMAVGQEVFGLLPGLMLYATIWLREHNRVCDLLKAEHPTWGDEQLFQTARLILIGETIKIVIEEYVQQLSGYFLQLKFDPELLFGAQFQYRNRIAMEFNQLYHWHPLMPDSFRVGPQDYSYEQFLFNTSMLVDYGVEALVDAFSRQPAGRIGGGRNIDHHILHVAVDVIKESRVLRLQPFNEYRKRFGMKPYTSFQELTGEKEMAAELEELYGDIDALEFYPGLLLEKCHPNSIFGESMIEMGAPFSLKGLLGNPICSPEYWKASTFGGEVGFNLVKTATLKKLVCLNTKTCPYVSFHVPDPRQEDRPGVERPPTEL", "assay": "[[…]-14C]-arachidonic acid TLC COX activity assay with purified enzyme", "type": "biochemical"}}, "data": [{"molecule": "FCc1onc(-c2ccc(Cl)o2)c1-c1ccccc1", "note": "[[19F]-P6, 3-(5-chlorofuran-2-yl)-5-(fluoromethyl)-4-phenylisoxazole]", "values": [{"measurement": "IC50", "setting": "[1]", "result": 1.37, "unit": "µM"}, {"measurement": "IC50", "setting": "[2]", "result": 2, "unit": "µM"}]}]}
